Experimental data taken from patent publication US12686692B2, “KRas G12D inhibitors” (Mirati Therapeutics, Inc., priority 2020, dated 2026).

Tests used:
[1] = target: T1, KRas G12D (Homo sapiens, UniProt P01116, G12D); assay: KRas G12D Surface Plasmon Resonance (SPR) Binding Assay; conditions: Biacore T200, biotinylated Avidin-tagged KRAS protein on SA chip, 20 C, 1:1 binding model
Description: This Example illustrates that exemplary compounds of the present invention bind to KRas G12D as measured by surface plasmon resonance (SPR). Briefly, 1 L of 1.05×HBS-Mg buffer (262.5 mM BioUltra Hepes, pH 7.5, 157.5 mM NaCl, 105 mM MgCl2, 0.525 mM TCEP, […] Brij-35) was prepared and filter sterilized using a 0.22 μm bottle top filter. Approximately 50 mL of 1.05×HBS-Mg buffer was removed and saved for future dilutions. A 50 mL aliquot of DMSO (Sigma Aldrich DMSO Lot. #SHBK2079) was added and continued to stir for 10 minutes, creating the final 1.0×HBS-Mg buffer (250 mM BioUltra Hepes pH 7.5, 150 mM NaCl, 100 mM MgCl2, 0.5 mM TCEP, 0.03% Brij-35). Biacore T200 instrument was primed using 1.0×HBS-Mg buffer before docking a GE Streptavidin (SA) chip and then primed two additional times prior to beginning the immobilization step. All immobilized protein mixtures were created using 3-5 mg/mL Biotinylated Avidin-tagged KRAS protein using the following immobilization settings: SA chip type, 1 flow cells per cycle, 720 second contact time, and 5 μL/min flow rate. Normalization of the detector was also performed during the immobilization step using the GE BiaNormalize solution. All compounds were diluted to 10 mM in 100% DMSO prior to being diluted 20× in 1.05× buffer. Another 10× dilution was created using 1.0× buffer prior to performing a series of 3× dilutions to create a compound concentration curve using the following assay settings: 20 C analysis temperature, General Settings=10 Hz data collection rate and multi-detection; Assay Steps=all set to LMW kinetics; Cycle Types=LMW kinetics (60s contact time, 120s dissociation time, 100 μL/min flow rate, extra wash after injection with 50% DMSO, flow path 1,2,3,4); Flow path detection=2-1, 4-3). Data evaluation was performed using the Biacore T200 Evaluation software and data fit to 1:1 binding model.
Target sequence in this assay (P01116 1-188 isoform P01116-2 G12D): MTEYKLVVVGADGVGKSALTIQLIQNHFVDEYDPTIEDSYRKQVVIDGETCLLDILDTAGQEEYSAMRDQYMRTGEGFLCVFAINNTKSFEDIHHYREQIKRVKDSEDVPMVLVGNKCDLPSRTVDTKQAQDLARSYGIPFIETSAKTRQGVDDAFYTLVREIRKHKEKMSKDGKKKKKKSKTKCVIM

[2] = target: T1, KRas G12D; assay: KRas G12D Binding Assay (TR-FRET displacement of labeled tracer); design: corresponding to amino acids 1:169, produced at Array BioPharma; biotin (protein is biotinylated); conditions: TR-FRET displacement of Cy5 labelled tracer, biotinylated GDP-loaded KRAS G12D (aa 1:169), 60 minute incubation at 22° C.
Outline: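 Biotinylated GDP-loaded human KRAS G12D (aa 1–169) incubated with Cy5 tracer, Eu-streptavidin and compound (2% DMSO final) in 50 mM HEPES pH 7.5, 5 mM MgCl2, 0.005% Tween-20, 1 mM DTT, 60 min at 22 °C. TR-FRET ratio converted to percent of control; IC50 at 50 POC from 4-parameter logistic fit.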
Target sequence in this assay (P01116 1-169 isoform P01116-2 G12D): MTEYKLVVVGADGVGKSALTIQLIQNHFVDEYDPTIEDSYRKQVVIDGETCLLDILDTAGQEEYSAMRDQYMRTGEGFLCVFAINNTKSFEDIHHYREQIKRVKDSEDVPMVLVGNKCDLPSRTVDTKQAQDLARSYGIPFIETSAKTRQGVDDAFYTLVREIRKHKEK

[3] = system: KRas G12D-mediated Phosphorylation of ERK; assay: Inhibition of KRas G12D-mediated Phosphorylation of ERK in AGS cells; assay type: cell-based; conditions: Homo sapiens; AGS cells expressing G12D, 3 hours, phospho-ERK normalized to GAPDH
Outline: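 AGS cells (endogenous KRas G12D) were treated with compounds for 3 h in 0.5% DMSO, then fixed, permeabilized and immunostained. The phospho-ERK (Thr202/Tyr204) signal was normalized to GAPDH in-cell by infrared detection and expressed as % of DMSO control. IC50 came from a 4-parameter fit.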

SMILES	Kd [1]	IC50 [2]	IC50 [3]
CN1CCC[C@H]1COc1nc2c(c(N3CC4CC(O)C(C3)N4)n1)CCN(c1cc(O)cc3ccccc13)C2 (mixture of isomers) [Example 4, 3-(7-(3-hydroxynaphthalen-1-yl)-2-(((S)-1-methylpyrrolidin-2-yl)methoxy)-5,6,7,8-tetrahydropyrido[3,4-d]pyrimidin-4-yl)-3,8-diazabicyclo[3.2.1]octan-6-ol]	0.0015 µM	0.0037 µM	0.994 µM
CO[C@@H]1C[C@@H]2CN(c3nc(OCC45CCCN4CC(F)C5)nc4c3CCN(c3cccc5cccc(Cl)c35)C4)C[C@H]1N2 (mixture of isomers) [Example 43, 7-(8-chloronaphthalen-1-yl)-2-((2-fluorotetrahydro-1H-pyrrolizin-7a(5H)-yl)methoxy)-4-((1R,5R,6R)-6-methoxy-3,8-diazabicyclo[3.2.1]octan-3-yl)-5,6,7,8-tetrahydropyrido[3,4-d]pyrimidine]	0.0576 µM	0.0901 µM	> 16.7 µM
FC1CN2CCCC2(COc2nc3c(c(N4CC5CC(F)C(C4)N5)n2)CCN(c2cccc4cccc(Cl)c24)C3)C1 (racemic) [Example 44, 7-(8-chloronaphthalen-1-yl)-4-(6-fluoro-3,8-diazabicyclo[3.2.1]octan-3-yl)-2-((2-fluorotetrahydro-1H-pyrrolizin-7a(5H)-yl)methoxy)-5,6,7,8-tetrahydropyrido[3,4-d]pyrimidine]	0.0439 µM	0.0435 µM	9.03 µM
O[C@@H]1C[C@@H]2CN(c3nc(OCC45CCCN4CC(F)C5)nc4c3CCN(c3cccc5cccc(Cl)c35)C4)C[C@H]1N2 (mixture of isomers) [Example 45, (1R,5R,6R)-3-(7-(8-chloronaphthalen-1-yl)-2-((2-fluorotetrahydro-1H-pyrrolizin-7a(5H)-yl)methoxy)-5,6,7,8-tetrahydropyrido[3,4-d]pyrimidin-4-yl)-3,8-diazabicyclo[3.2.1]octan-6-ol]	0.0019 µM	0.0026 µM	1.36 µM
CN1CCC[C@H]1COc1nc2c(c(N3C[C@H]4C[C@@H](O)[C@@H](C3)N4)n1)CCN(c1cc(O)cc3ccccc13)C2 (single isomer, unassigned) [Example 54]	501 µM	0.0411 µM	1.13 µM
CN1CCC[C@H]1COc1nc2c(c(N3C[C@@H]4C[C@H](O)[C@H](C3)N4)n1)CCN(c1cc(O)cc3ccccc13)C2 (single isomer, unassigned) [Example 55]	38.7 µM	0.775 µM	4.88 µM
C[C@@H]1CC2CN(c3nc(OC[C@@H]4CCCN4C)nc4c3CCN(c3cccc5cccc(Cl)c35)C4)C[C@H]1N2 (single isomer, unassigned) [Example 87]	0.705 µM	0.271 µM	13.4 µM
CN1CCC[C@H]1COc1nc2c(c(N3C[C@H]4CC[C@@H](C3)N4)n1)CCN(c1cc(O)cc3ccccc13)C2 [Example 1, 4-(4-((1R,5S)-3,8-diazabicyclo[3.2.1]octan-3-yl)-2-(((S)-1-methylpyrrolidin-2-yl)methoxy)-5,8-dihydropyrido[3,4-d]pyrimidin-7(6H)-yl)naphthalen-2-ol]	0.11 µM	0.0489 µM	2.35 µM
CN1CCC[C@H]1COc1nc2c(c(N3C[C@H]4CC[C@@H](C3)N4)n1)CCN(c1cccc3cccc(Cl)c13)C2 [Example 2, 4-((1R,5S)-3,8-diazabicyclo[3.2.1]octan-3-yl)-7-(8-chloronaphthalen-1-yl)-2-(((S)-1-methylpyrrolidin-2-yl)methoxy)-5,6,7,8-tetrahydropyrido[3,4-d]pyrimidine]	0.163 µM	0.267 µM	16.1 µM
CN1CCC[C@H]1COc1nc2c(c(N3C[C@H]4CC[C@@H](C3)N4)n1)CCN(c1cc(O)c(Cl)c3ccccc13)C2 [Example 24, 4-(4-((1R,5S)-3,8-diazabicyclo[3.2.1]octan-3-yl)-2-(((S)-1-methylpyrrolidin-2-yl)methoxy)-5,8-dihydropyrido[3,4-d]pyrimidin-7(6H)-yl)-1-chloronaphthalen-2-ol]	0.0377 µM	1.36 µM	> 16.7 µM
CC(Oc1nc2c(c(N3C[C@H]4CC[C@@H](C3)N4)n1)CCN(c1cc(O)c(Cl)c3ccccc13)C2)[C@@H]1CCCN1 (stereo partly drawn) [Example 26, 4-(4-((1R,5S)-3,8-diazabicyclo[3.2.1]octan-3-yl)-2-(1-((S)-pyrrolidin-2-yl)ethoxy)-5,8-dihydropyrido[3,4-d]pyrimidin-7(6H)-yl)-1-chloronaphthalen-2-ol]	0.325 µM	–	> 16.7 µM
Oc1cc(N2CCc3c(nc(OC[C@@H]4CCCN4)nc3N3C[C@H]4CC[C@@H](C3)N4)C2)c2ccccc2c1Cl [Example 27, 4-(4-((1R,5S)-3,8-diazabicyclo[3.2.1]octan-3-yl)-2-(((S)-pyrrolidin-2-yl)methoxy)-5,8-dihydropyrido[3,4-d]pyrimidin-7(6H)-yl)-1-chloronaphthalen-2-ol]	0.0913 µM	1.6 µM	11.1 µM
CN1CCC[C@H]1COc1nc2c(c(N3C[C@H]4CC[C@@H](C3)N4)n1)CCN(c1cc(O)cc3cccc(Cl)c13)C2 [Example 28, 4-(4-((1R,5S)-3,8-diazabicyclo[3.2.1]octan-3-yl)-2-(((S)-1-methylpyrrolidin-2-yl)methoxy)-5,8-dihydropyrido[3,4-d]pyrimidin-7(6H)-yl)-5-chloronaphthalen-2-ol]	> 1000 µM	0.0012 µM	0.361 µM
Clc1cccc2cccc(N3CCc4c(nc(OCC56CCCN5CCC6)nc4N4C[C@H]5CC[C@@H](C4)N5)C3)c12 [Example 29, 4-((1R,5S)-3,8-diazabicyclo[3.2.1]octan-3-yl)-7-(8-chloronaphthalen-1-yl)-2-((tetrahydro-1H-pyrrolizin-7a(5H)-yl)methoxy)-5,6,7,8-tetrahydropyrido[3,4-d]pyrimidine]	0.0063 µM	0.0025 µM	4.05 µM
Clc1cccc2cncc(N3CCc4c(nc(OCC56CCCN5CCC6)nc4N4C[C@H]5CC[C@@H](C4)N5)C3)c12 [Example 30, 4-((1R,5S)-3,8-diazabicyclo[3.2.1]octan-3-yl)-7-(5-chloroisoquinolin-4-yl)-2-((tetrahydro-1H-pyrrolizin-7a(5H)-yl)methoxy)-5,6,7,8-tetrahydropyrido[3,4-d]pyrimidine]	0.0871 µM	0.0168 µM	2.61 µM
Oc1cc(N2CCc3c(nc(OCC45CCCN4CCC5)nc3N3C[C@H]4CC[C@@H](C3)N4)C2)c2ccccc2c1 [Example 31, 4-(4-((1R,5S)-3,8-diazabicyclo[3.2.1]octan-3-yl)-2-((tetrahydro-1H-pyrrolizin-7a(5H)-yl)methoxy)-5,8-dihydropyrido[3,4-d]pyrimidin-7(6H)-yl)naphthalen-2-ol]	0.0008 µM	0.0038 µM	1.61 µM
CN1CCC[C@H]1COc1nc2c(c(N3C[C@H]4CC[C@@H](C3)N4)n1)CCN(c1cccc3cccc(CCC#N)c13)C2 [Example 80, 3-(8-(4-((1R,5S)-3,8-diazabicyclo[3.2.1]octan-3-yl)-2-(((S)-1-methylpyrrolidin-2-yl)methoxy)-5,8-dihydropyrido[3,4-d]pyrimidin-7(6H)-yl)naphthalen-1-yl)propanenitrile]	0.617 µM	–	11.1 µM
Cc1ccc2cccc(N3CCc4c(nc(OC[C@@H]5CCCN5C)nc4N4C[C@H]5CC[C@@H](C4)N5)C3)c2c1 [Example 110, 4-((1R,5S)-3,8-diazabicyclo[3.2.1]octan-3-yl)-7-(7-methylnaphthalen-1-yl)-2-(((S)-1-methylpyrrolidin-2-yl)methoxy)-5,6,7,8-tetrahydropyrido[3,4-d]pyrimidine]	3.23 µM	3.17 µM	–
